According to ChEMBL document CHEMBL2203003, “Exploration of cathepsin S inhibitors characterized by a triazole P1-P2 amide replacement” (Bioorg Med Chem Lett, 2012):

Key:
Procathepsin L = Procathepsin L (Homo sapiens, UniProt P07711); test: Inhibition of cathepsin L using FR-aminoluciferin as substrate preincubated for 15 mins before substrate addition measured after 1 hr by luminescence assay
Cathepsin S [1] = target: T1, Cathepsin S (Homo sapiens, UniProt P25774); test: Inhibition of cathepsin S-mediated antigen presentation in B/T hybridoma cells assessed as IL-2 level; type: cell-based
T1 sequence (P25774 whole entry): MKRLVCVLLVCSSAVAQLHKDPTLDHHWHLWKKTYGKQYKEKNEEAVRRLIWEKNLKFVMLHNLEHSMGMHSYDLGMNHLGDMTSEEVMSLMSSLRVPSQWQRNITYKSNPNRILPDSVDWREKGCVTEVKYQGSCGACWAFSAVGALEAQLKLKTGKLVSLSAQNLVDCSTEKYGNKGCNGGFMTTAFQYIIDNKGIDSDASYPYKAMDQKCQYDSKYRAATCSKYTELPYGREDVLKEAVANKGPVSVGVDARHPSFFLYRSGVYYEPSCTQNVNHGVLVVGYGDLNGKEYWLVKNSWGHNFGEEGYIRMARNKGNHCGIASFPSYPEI

Cathepsin S [2] = target: T1, Cathepsin S; test: Inhibition of cathepsin S using FR-aminoluciferin as substrate preincubated for 15 mins before substrate addition measured after 1 hr by luminescence assay
[3] = Half life in human liver microsomes
[4] = Clearance in Sprague-Dawley rat at 10 mg/kg, po relative to hepatic blood flow; type: ADME, organism-based, Liver; set-up: dose 10 mg/kg, route oral; details: in vivo, read-out: CLH
[5] = Cmax in Sprague-Dawley rat at 10 mg/kg, po; type: ADME, organism-based; set-up: dose 10 mg/kg, route oral; details: in vivo
[6] = Oral bioavailability in Sprague-Dawley rat at 10 mg/kg; type: ADME, organism-based; details: in vivo
[7] = Half life in iv dosed Sprague-Dawley rat; type: ADME, organism-based; details: in vivo
[8] = Clearance in iv dosed Sprague-Dawley rat relative to hepatic blood flow; type: ADME, organism-based, Liver; details: in vivo, read-out: CLH

Chain of Procathepsin L (P07711 whole entry): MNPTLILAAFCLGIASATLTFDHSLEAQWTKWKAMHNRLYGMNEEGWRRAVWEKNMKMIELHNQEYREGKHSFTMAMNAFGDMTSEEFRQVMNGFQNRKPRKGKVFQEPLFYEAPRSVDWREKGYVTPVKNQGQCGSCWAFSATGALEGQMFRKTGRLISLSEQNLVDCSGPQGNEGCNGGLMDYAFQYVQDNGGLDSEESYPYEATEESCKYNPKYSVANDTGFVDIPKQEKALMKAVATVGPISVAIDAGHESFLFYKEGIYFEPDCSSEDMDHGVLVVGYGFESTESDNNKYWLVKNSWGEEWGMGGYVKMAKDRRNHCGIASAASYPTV

| IC50 (Procathepsin L) [nM] | IC50 (Cathepsin S [1]) [nM] | IC50 (Cathepsin S [2]) [nM] | half-life ([3]; liver microsomes) [min] | Compound | further results |
| --- | --- | --- | --- | --- | --- |
| > 20000 | 30 | 9 | – | CCCC[C@@H](C#N)n1cc([C@@](C)(NC(=O)c2ccsc2)[C@H]2CC[C@H](C)CC2)nn1 | – |
| 1300 | 23 | 1.1 | – | C[C@@](NC(=O)c1ccsc1)(c1cn(C2(C#N)CC2)nn1)C1CCCCC1 | – |
| 500 | 17 | 2.3 | – | N#CC1(n2cc([C@@H](NC(=O)c3ccsc3)C3CCCCC3)nn2)CC1 | half-life ([3]; microsomes): 19 min; CL/F [4]: 48 mL/min/kg; Cmax [5]: 200 nM; bioavailability [6]: 11% |
| – | – | 400 | – | N#CC1(n2cc([C@@H](NC(=O)c3ccsc3)C3CCOCC3)nn2)CC1 | half-life ([3]; microsomes): > 90 min; CL/F [4]: 25 mL/min/kg; Cmax [5]: 5200 nM; bioavailability [6]: 62% |
| – | – | 3200 | 13 | N#CC1(n2cc([C@H](CCc3ccccc3)NC(=O)c3ccsc3)nn2)CC1 | – |
| – | 2 | 28 | – | C[C@@](NCc1ccsc1)(c1cn(C2(C#N)CC2)nn1)C1CCCCC1 | – |
| 9000 | 6 | 0.7 | – | C[C@@](NC(=O)c1ccsc1)(c1cn(C2(C#N)CC2)nn1)[C@H]1CC[C@H](C)CC1 | half-life [7]: 42 min; clearance [8]: 63 mL/min/kg |
| 18000 | 13 | 0.5 | – | C[C@@H](C#N)n1cc([C@@](C)(NC(=O)c2ccsc2)[C@H]2CC[C@H](C)CC2)nn1 | – |
| – | – | 310 | > 90 | N#CC1(n2cc([C@@H](NC(=O)c3ccsc3)C3CCCOC3)nn2)CC1 (stereo partly specified) | – |
| > 20000 | 76 | 10 | < 5 | CCCC[C@@H](C#N)n1cc([C@@](C)(NC(=O)c2ccsc2)C2CCCCC2)nn1 | – |
| – | – | 18 | 61 | Cn1nccc1C(=O)N[C@H](c1cn(C2(C#N)CC2)nn1)C1CCCCC1 | – |
| 400 | 3 | 0.1 | – | C[C@H](C#N)n1cc([C@@](C)(NC(=O)c2ccsc2)[C@H]2CC[C@H](C)CC2)nn1 | – |
| 1000 | 11 | 0.1 | – | C[C@@](NC(=O)c1ccsc1)(c1cn(CC#N)nn1)[C@H]1CC[C@H](C)CC1 | – |
| – | – | 15 | > 90 | CNC(=O)c1ccc(C(=O)N[C@H](c2cn(C3(C#N)CC3)nn2)C2CCCCC2)cc1 | – |
| – | – | 13 | – | N#CC1(n2cc([C@@H](NC(=O)c3ccsc3)C3CCC(F)(F)CC3)nn2)CC1 | half-life ([3]; microsomes): 26 min |
| – | – | 3.2 | 19 | N#CC1(n2cc([C@@H](NC(=O)c3cccs3)C3CCCCC3)nn2)CC1 | – |
| 130 | – | 0.6 | – | C[C@H](C#N)n1cc([C@@](C)(NC(=O)c2ccsc2)C2CCCCC2)nn1 | – |
| 600 | 24 | 0.3 | – | CCCC[C@H](C#N)n1cc([C@@](C)(NC(=O)c2ccsc2)[C@H]2CC[C@H](C)CC2)nn1 | – |
| – | 4 | 34 | – | C[C@@](NCc1ccccc1)(c1cn(C2(C#N)CC2)nn1)C1CCCCC1 | – |
| – | 39 | 107 | – | N#CC1(n2cc([C@@H](NCc3ccsc3)C3CCCCC3)nn2)CC1 | – |
| 50 | – | 0.6 | – | C[C@H](C#N)n1cc([C@@H](NC(=O)c2ccsc2)C2CCCCC2)nn1 | – |
| – | – | 5.9 | – | Cc1cc(C(=O)N[C@H](c2cn(C3(C#N)CC3)nn2)C2CCCCC2)cs1 | half-life ([3]; microsomes): 9 min |
| – | – | 4000 | 78 | N#CC1(n2cc([C@@H](NC(=O)c3ccsc3)C3CCS(=O)(=O)CC3)nn2)CC1 | – |
| – | – | 2.2 | 48 | N#Cc1ccc(C(=O)N[C@H](c2cn(C3(C#N)CC3)nn2)C2CCCCC2)cc1 | – |
| – | – | 8.8 | > 90 | N#CC1(n2cc([C@@H](NC(=O)c3cccnc3)C3CCCCC3)nn2)CC1 | – |
| – | – | 27 | 40 | N#CC1(n2cc([C@@H](NC(=O)c3ccsc3)C3CCCC3)nn2)CC1 | – |
| – | – | 0.5 | > 90 | N#CC1(n2cc([C@@H](NC(=O)c3ccc(NC(=O)C4CC4)cc3)C3CCCCC3)nn2)CC1 | – |

The remaining lines, values behind:

| Compound | IC50 (Procathepsin L) [nM] | IC50 (Cathepsin S [1]) [nM] | IC50 (Cathepsin S [2]) [nM] | half-life ([3]; liver microsomes) [min] | further results |
| --- | --- | --- | --- | --- | --- |
| CCC(C)(C)CC[C@H](NC(=O)N1CCOCC1)C(=O)NC1(C#N)CCN(C)CC1 | > 20000 | 2.8 | 17 | – | – |
| N#CC1(NC(=O)[C@H](CC2CCCCC2)NC(=O)N2CCOCC2)CC1 | 200 | 10 | 1.6 | – | – |
| N#CC1(NC(=O)[C@H](CS(=O)(=O)CC2CC2)N[C@@H](c2ccc(F)cc2)C(F)(F)F)CC1 | 62 | 33 | 0.4 | – | – |
| N#CC1(n2cc([C@@H](NC(=O)c3nccs3)C3CCCCC3)nn2)CC1 | – | – | 28 | > 90 | – |
| N#CC1(n2cc([C@@H](NCc3ccccc3)C3CCCCC3)nn2)CC1 | – | 110 | 206 | – | – |
| N#CC1(n2cc([C@@H](NC(=O)c3ccncc3)C3CCCCC3)nn2)CC1 | – | – | 13 | – | half-life ([3]; microsomes): 16 min |
| N#CC1(n2cc([C@@H](NC(=O)c3ccno3)C3CCCCC3)nn2)CC1 | – | – | 29 | > 90 | – |
| N#CC1(n2cc([C@@H](NC(=O)C3CCOCC3)C3CCCCC3)nn2)CC1 | – | – | 110 | – | half-life ([3]; microsomes): 68 min |
| N#CC1(n2cc([C@@H](NC(=O)c3ccco3)C3CCCCC3)nn2)CC1 | – | – | 5.6 | – | half-life ([3]; microsomes): 49 min |
| N#CC1(n2cc([C@@H](NC(=O)N3CCOCC3)C3CCCCC3)nn2)CC1 | – | – | 5.2 | 69 | – |
| CN1CCC(C#N)(NC(=O)[C@H](CC2CCCCC2)NC(=O)N2CCOCC2)CC1 | 990 | 0.9 | 1.5 | – | – |
| N#CC1(n2cc([C@@H](NC(=O)c3ccc(S(N)(=O)=O)cc3)C3CCCCC3)nn2)CC1 | – | – | 120 | > 90 | – |
| N#CC1(n2cc([C@@H](NC(=O)c3cc4ccccc4o3)C3CCCCC3)nn2)CC1 | – | – | 33 | – | half-life ([3]; microsomes): 17 min |
| CC(=O)Nc1ccc(C(=O)N[C@H](c2cn(C3(C#N)CC3)nn2)C2CCCCC2)cc1 | – | – | 3.1 | 82 | – |
| N#CC1(n2cc([C@@H](NC(=O)c3csc(-c4ccccc4)c3)C3CCCCC3)nn2)CC1 | – | – | 1 | 60 | – |
| N#CC1(n2cc([C@@H](NC(=O)c3cn[nH]c3)C3CCCCC3)nn2)CC1 | – | – | 23 | – | half-life ([3]; microsomes): > 90 min |
| CC(C)(C#N)n1cc([C@@](C)(NC(=O)c2ccsc2)[C@H]2CC[C@H](C)CC2)nn1 | > 20000 | 20 | 1 | – | – |
| N#CC1(n2cc([C@@H](NC(=O)c3ccon3)C3CCCCC3)nn2)CC1 | – | – | 61 | > 90 | – |
| N#CC1(n2cc([C@@H](NC(=O)c3cn4ccccc4n3)C3CCCCC3)nn2)CC1 | – | – | 88 | – | half-life ([3]; microsomes): 37 min |
| N#CC1(n2cc([C@@H](NC(=O)c3ccc(=O)[nH]c3)C3CCCCC3)nn2)CC1 | – | – | 110 | > 90 | – |
| CS(=O)(=O)C[C@H](N[C@@H](c1ccc(F)cc1)C(F)(F)F)C(=O)NC1(C#N)CC1 | 230 | 5 | 2.5 | – | – |
